{"source": "patent US9380788B2", "about": "“Package for plant antimicrobial treatment” (priority 2013, dated 2016)", "data": [{"test_system": "pepper plants", "type": "in vivo", "settings": "plants sprayed with oregano/sesame oil emulsion made with the emulsifier", "values": [{"compound": "CCCCCCCCCCCCOS(=O)(=O)[O-].[Na+]", "note": "[SDS]", "Phytotoxicity on pepper plants": "phytotoxicity"}, {"compound": "CCCCCCCC/C=C\\CCCCCCCC(=O)OCCOCC(OCCO)C1OCC(OCCO)C1OCCO", "note": "(stereo not shown) [Tween 80]", "Phytotoxicity on pepper plants": "phytotoxicity"}, {"compound": "CCCCCCCCCCCCCCCCCC(=O)[O-].[Na+]", "note": "[sodium stearate, Sodium Stearate]", "Phytotoxicity on pepper plants": "very vital"}, {"compound": "Triton X 100 [Triton X100]", "Phytotoxicity on pepper plants": "phytotoxicity"}]}]}
